Assay results from publication PMC7915185 (Molecules, 2021).

Columns and labels:
[1] = biological target: H5N1 (A/Hong Kong/483/97) hemagglutinin (HA) protein (Influenza A virus, UniProt Q77XR4); type: binding, influenza virus H5N1 (A/Hong Kong/483/97); conditions: pH 7.4
[2] = biological target: T1, H1N1 (A/WSN/1933) hemagglutinin (HA) protein (Influenza A virus, UniProt P03454); assay: biochemical; type: binding, influenza virus H1N1 (A/WSN/1933)
T1 construct: purchased Sino Biological Inc. (Beijing, China)

HA = conditions: in our previous work; cited from earlier work

Row | Compound | thermodynamic dissociation constant KD [1] | thermodynamic dissociation constant KD ([2]; pH 7.4) | Kd [2] | affinity to HA (SPR) (HA)
1 | C=C(C)[C@@H]1CC[C@]2(C(=O)O)CC[C@]3(C)[C@H](CC[C@@H]4[C@@]5(C)CC[C@H](O)C(C)(C)[C@@H]5CC[C@]43C)[C@@H]12 [BA, betulinic acid] | no significant affinity | no affinity |  | 
2 | CC1(C)[C@@H](O)CC[C@]2(C)[C@H]3C(=O)C=C4[C@@H]5C[C@@](C)(C(=O)O)CC[C@]5(C)CC[C@@]4(C)[C@]3(C)CC[C@@H]12 [GA, glycyrrhetinic acid] | no significant affinity |  | 584 µM | 
3 | CC1(C)CC[C@]2(C(=O)O)CC[C@]3(C)C(=CC[C@@H]4[C@@]5(C)CC[C@H](O)C(C)(C)[C@@H]5CC[C@]43C)[C@@H]2C1 [OA, oleanolic acid] |  |  | 31.1 µM | 
4 | C=C(C)[C@@H]1CC[C@]2(C(=O)OCCOCCOCCOCCOCCOCCn3cc(CCC(=O)N[C@@H](CC(=O)N[C@@H]4O[C@H](CO)[C@@H](O[C@@H]5O[C@H](CO)[C@@H](O[C@@H]6O[C@H](CO[C@H]7O[C@H](CO)[C@@H](O)[C@H](O)[C@@H]7O[C@@H]7O[C@H](CO)[C@@H](O[C@@H]8O[C@H](CO[C@]9(C(=O)O)C[C@H](O)[C@@H](NC(C)=O)[C@H]([C@H](O)[C@H](O)CO)O9)[C@H](O)[C@H](O)[C@H]8O)[C@H](O)[C@H]7NC(C)=O)[C@@H](O)[C@H](O[C@H]7O[C@H](CO)[C@@H](O)[C@H](O)[C@@H]7O[C@@H]7O[C@H](CO)[C@@H](O[C@@H]8O[C@H](CO[C@]9(C(=O)O)C[C@H](O)[C@@H](NC(C)=O)[C@H]([C@H](O)[C@H](O)CO)O9)[C@H](O)[C@H](O)[C@H]8O)[C@H](O)[C@H]7NC(C)=O)[C@@H]6O)[C@H](O)[C@H]5NC(C)=O)[C@H](O)[C@H]4NC(C)=O)C(=O)O)nn3)CC[C@]3(C)[C@H](CC[C@@H]4[C@@]5(C)CC[C@H](O)C(C)(C)[C@@H]5CC[C@]43C)[C@@H]12 [SCT-Asn-BA] |  |  | 6.89 µM | 
5 | CC(=O)N[C@@H]1[C@@H](O)[C@H](O[C@@H]2O[C@H](CO)[C@@H](O[C@@H]3O[C@H](CO[C@H]4O[C@H](CO)[C@@H](O)[C@H](O)[C@@H]4O[C@@H]4O[C@H](CO)[C@@H](O[C@@H]5O[C@H](CO[C@]6(C(=O)O)C[C@H](O)[C@@H](NC(C)=O)[C@H]([C@H](O)[C@H](O)CO)O6)[C@H](O)[C@H](O)[C@H]5O)[C@H](O)[C@H]4NC(C)=O)[C@@H](O)[C@H](O[C@H]4O[C@H](CO)[C@@H](O)[C@H](O)[C@@H]4O[C@@H]4O[C@H](CO)[C@@H](O[C@@H]5O[C@H](CO[C@]6(C(=O)O)C[C@H](O)[C@@H](NC(C)=O)[C@H]([C@H](O)[C@H](O)CO)O6)[C@H](O)[C@H](O)[C@H]5O)[C@H](O)[C@H]4NC(C)=O)[C@@H]3O)[C@H](O)[C@H]2NC(C)=O)[C@@H](CO)O[C@H]1NC(=O)C[C@H](NC(=O)CCc1cn(CCOCCOCCOCCOCCOCCOC(=O)[C@@]2(C)CC[C@]3(C)CC[C@]4(C)C(=CC(=O)[C@@H]5[C@@]6(C)CC[C@H](O)C(C)(C)[C@@H]6CC[C@]54C)[C@@H]3C2)nn1)C(=O)O [SCT-Asn-GA] |  |  | 16.4 µM | 
6 | CC(=O)N[C@@H]1[C@@H](O)[C@H](O[C@@H]2O[C@H](CO)[C@@H](O[C@@H]3O[C@H](CO[C@H]4O[C@H](CO)[C@@H](O)[C@H](O)[C@@H]4O[C@@H]4O[C@H](CO)[C@@H](O[C@@H]5O[C@H](CO[C@]6(C(=O)O)C[C@H](O)[C@@H](NC(C)=O)[C@H]([C@H](O)[C@H](O)CO)O6)[C@H](O)[C@H](O)[C@H]5O)[C@H](O)[C@H]4NC(C)=O)[C@@H](O)[C@H](O[C@H]4O[C@H](CO)[C@@H](O)[C@H](O)[C@@H]4O[C@@H]4O[C@H](CO)[C@@H](O[C@@H]5O[C@H](CO[C@]6(C(=O)O)C[C@H](O)[C@@H](NC(C)=O)[C@H]([C@H](O)[C@H](O)CO)O6)[C@H](O)[C@H](O)[C@H]5O)[C@H](O)[C@H]4NC(C)=O)[C@@H]3O)[C@H](O)[C@H]2NC(C)=O)[C@@H](CO)O[C@H]1NC(=O)C[C@H](NC(=O)CCc1cn(CCOCCOCCOCCOCCOCCOC(=O)[C@]23CCC(C)(C)C[C@H]2C2=CC[C@@H]4[C@@]5(C)CC[C@H](O)C(C)(C)[C@@H]5CC[C@@]4(C)[C@]2(C)CC3)nn1)C(=O)O [SCT-Asn-OA] |  |  | 11.2 µM | 
7 | CC(=O)N[C@@H]1[C@@H](O)[C@H](O[C@@H]2O[C@H](CO)[C@@H](O[C@@H]3O[C@H](CO[C@H]4O[C@H](CO)[C@@H](O)[C@H](O)[C@@H]4O[C@@H]4O[C@H](CO)[C@@H](O[C@@H]5O[C@H](CO[C@]6(C(=O)O)C[C@H](O)[C@@H](NC(C)=O)[C@H]([C@H](O)[C@H](O)CO)O6)[C@H](O)[C@H](O)[C@H]5O)[C@H](O)[C@H]4NC(C)=O)[C@@H](O)[C@H](O[C@H]4O[C@H](CO)[C@@H](O)[C@H](O)[C@@H]4O[C@@H]4O[C@H](CO)[C@@H](O[C@@H]5O[C@H](CO[C@]6(C(=O)O)C[C@H](O)[C@@H](NC(C)=O)[C@H]([C@H](O)[C@H](O)CO)O6)[C@H](O)[C@H](O)[C@H]5O)[C@H](O)[C@H]4NC(C)=O)[C@@H]3O)[C@H](O)[C@H]2NC(C)=O)[C@@H](CO)O[C@H]1NC(=O)C[C@H](NC(=O)CCc1cn(CCOCCOCCOCCOCCOCCOC(=O)[C@]23CC[C@@H](C)[C@H](C)[C@H]2C2=CC[C@@H]4[C@@]5(C)CC[C@H](O)C(C)(C)[C@@H]5CC[C@@]4(C)[C@]2(C)CC3)nn1)C(=O)O [SCT-Asn-UA] |  |  | 289 µM | 
8 | C[C@H]1[C@H](C)CC[C@]2(C(=O)O)CC[C@]3(C)C(=CC[C@@H]4[C@@]5(C)CC[C@H](O)C(C)(C)[C@@H]5CC[C@]43C)[C@H]12 [UA, ursolic acid] | no significant affinity |  | 137 µM | 
9 | Sialylglycopeptide [SGP] | no affinity |  |  | no affinity
